In patent publication US20120258980A1, “Antibacterial Agent for Drug-Resistant Bacteria, Method for Screening for Same, and Use of Same” (priority 2009, published 2012):
≈ marks a conversion by molar mass, not a printed value.

Test system: VISA clinical isolates of MRSA (VI-MRSA) and of MSSA (VI-MSSA)
Test: microbe, parasite or virus in culture
Assay type: cell-based, Staphylococcus aureus
Procedure: Each of the bacterial strains listed in Table 1-1 was shake-cultured at 37° C. overnight in 4 mL of a medium (Tryptical Soy Broth: TSB, product of Becton Dickinson and Company). FDA209P was used as a control.
After completion of culturing, the resultant culture was suspended in a cation-adjusted Mueller Hinton Broth (CAMHB, product of Becton Dickinson and Company). Then, the obtained bacterial culture was adjusted in absorbance with the CAMHB so that the absorbance at 578 nm of the bacterial culture was adjusted to 0.3 measured by an absorption spectrometer. In addition, the resultant bacterial culture was 500-fold diluted with the CAMHB.
Each of the 500-fold diluted, pre-cultured bacterial cultures was added at 50 μL/well to the CAMHB containing the quinolones and the nybomycins at various concentrations (50 μL/well), followed by statically culturing at 37° C. overnight.
After completion of culturing, the growth of the bacteria was visually determined based on turbidity to measure MIC in each bacterial strain.
Here, the glycopeptides used were VCM and TEIC. The β-lactam used was OXA.

[1] = Staphylococcus aureus, 99/3700-W, VI-MRSA, The United Kingdom
[2] = Staphylococcus aureus, 99/3759-V, VI-MRSA, The United Kingdom
[3] = Staphylococcus aureus, 28160, VI-MRSA, South African Republic
[4] = Staphylococcus aureus, 98141, VI-MRSA, France
[5] = Staphylococcus aureus, A7 (JCSC4842), VI-MRSA, Taiwan
[6] = Staphylococcus aureus, AMC11094, VI-MRSA, Korea
[7] = Staphylococcus aureus, B7 (JCSC4852), VI-MRSA, Taiwan
[8] = Staphylococcus aureus, BR1, VI-MRSA, Brazil
[9] = Staphylococcus aureus, BR2, VI-MRSA, Brazil
[10] = Staphylococcus aureus, BR3, VI-MRSA, Brazil
[11] = Staphylococcus aureus, BR4, VI-MRSA, Brazil
[12] = Staphylococcus aureus, BR5, VI-MRSA, Brazil
[13] = Staphylococcus aureus, HIP06297, VI-MRSA, America
[14] = Staphylococcus aureus, HIP06854, VI-MRSA, America
[15] = Staphylococcus aureus, HIP07920, VI-MRSA, America
[16] = Staphylococcus aureus, HIP07930, VI-MRSA, America
[17] = Staphylococcus aureus, HIP08926, VI-MRSA, America
[18] = Staphylococcus aureus, HIP09143, VI-MRSA, America
[19] = Staphylococcus aureus, HIP09313, VI-MRSA, America
[20] = Staphylococcus aureus, HIP09433, VI-MRSA, America
[21] = Staphylococcus aureus, HIP09662, VI-MRSA, America
[22] = Staphylococcus aureus, HIP09735, VI-MRSA, America
[23] = Staphylococcus aureus, HIP09737, VI-MSSA, America
[24] = Staphylococcus aureus, HIP09740, VI-MRSA, America
[25] = Staphylococcus aureus, HIP10267, VI-MRSA, America
[26] = Staphylococcus aureus, HIP10540, VI-MRSA, America
[27] = Staphylococcus aureus, HIP12864, VI-MRSA, America
[28] = Staphylococcus aureus, HIP13036, VI-MRSA, America
[29] = Staphylococcus aureus, HIP13057, VI-MRSA, America
[30] = Staphylococcus aureus, IL (HIP7737), VI-MRSA, America
[31] = Staphylococcus aureus, JCSC7193, VI-MRSA, Thailand
[32] = Staphylococcus aureus, JCSC7195, VI-MRSA, Thailand
[33] = Staphylococcus aureus, JCSC7203, VI-MRSA, Thailand
[34] = Staphylococcus aureus, LIM2, VI-MRSA, France
[35] = Staphylococcus aureus, LY-1999-01, VI-MSSA, Oman
[36] = Staphylococcus aureus, LY-1999-03, VI-MRSA, Oman
[37] = Staphylococcus aureus, MI (HIP5827), VI-MRSA, America
[38] = Staphylococcus aureus, MRSA / MSSA / NRS 76 / VISA, NRS76, VI-MSSA, America
[39] = Staphylococcus aureus, MRSA / MSSA / NRS 79 / VISA, NRS79, VI-MRSA, America
[40] = Staphylococcus aureus, MRSA / MSSA / NRS 118 / VISA, NRS118, VI-MRSA, America
[41] = Staphylococcus aureus, MRSA / MSSA / NRS 126 / VISA, NRS126, VI-MRSA, America
[42] = Staphylococcus aureus, Mu3, VI-MRSA, Japan
[43] = Staphylococcus aureus, Mu50, VI-MRSA, Japan
[44] = Staphylococcus aureus, NJ (HIP5836), VI-MRSA, America
[45] = Staphylococcus aureus, P1V44, VI-MSSA, Belgium
[46] = Staphylococcus aureus, PC, VI-MRSA, America
[47] = Staphylococcus aureus, SA MER-S6, VI-MSSA, France
[48] = Staphylococcus aureus, SA MER-S12, VI-MSSA, France
[49] = Staphylococcus aureus, SA MER-S20, VI-MSSA, France

Compound: Cc1onc(-c2ccccc2)c1C(=O)N[C@@H]1C(=O)N2[C@@H]1SC(C)(C)[C@@H]2C(=O)O [OXA, oxacillin]
- MIC [1]: 512 µg/mL (≈ 1280 µM)
- MIC [2]: 512 µg/mL (≈ 1280 µM)
- MIC [3]: 32 µg/mL (≈ 79.7 µM)
- MIC [4]: > 128 µg/mL
- MIC [5]: 128 µg/mL (≈ 319 µM)
- MIC [6]: 512 µg/mL (≈ 1280 µM)
- MIC [7]: 128 µg/mL (≈ 319 µM)
- MIC [8]: 256 µg/mL (≈ 638 µM)
- MIC [9]: 64 µg/mL (≈ 159 µM)
- MIC [10]: 64 µg/mL (≈ 159 µM)
- MIC [11]: 512 µg/mL (≈ 1280 µM)
- MIC [12]: 512 µg/mL (≈ 1280 µM)
- MIC [13]: 512 µg/mL (≈ 1280 µM)
- MIC [14]: 128 µg/mL (≈ 319 µM)
- MIC [15]: 128 µg/mL (≈ 319 µM)
- MIC [16]: 32 µg/mL (≈ 79.7 µM)
- MIC [17]: 512 µg/mL (≈ 1280 µM)
- MIC [18]: 512 µg/mL (≈ 1280 µM)
- MIC [19]: 512 µg/mL (≈ 1280 µM)
- MIC [20]: 256 µg/mL (≈ 638 µM)
- MIC [21]: 512 µg/mL (≈ 1280 µM)
- MIC [22]: 512 µg/mL (≈ 1280 µM)
- MIC [23]: 1 µg/mL (≈ 2.49 µM)
- MIC [24]: 512 µg/mL (≈ 1280 µM)
- MIC [25]: 4 µg/mL (≈ 9.96 µM)
- MIC [26]: 64 µg/mL (≈ 159 µM)
- MIC [27]: 1020 µg/mL (≈ 2550 µM)
- MIC [28]: 32 µg/mL (≈ 79.7 µM)
- MIC [29]: 4 µg/mL (≈ 9.96 µM)
- MIC [30]: 64 µg/mL (≈ 159 µM)
- MIC [31]: > 128 µg/mL
- MIC [32]: > 128 µg/mL
- MIC [33]: 128 µg/mL (≈ 319 µM)
- MIC [34]: 32 µg/mL (≈ 79.7 µM)
- MIC [35]: 1 µg/mL (≈ 2.49 µM)
- MIC [36]: 1020 µg/mL (≈ 2550 µM)
- MIC [37]: 512 µg/mL (≈ 1280 µM)
- MIC [38]: 1 µg/mL (≈ 2.49 µM)
- MIC [39]: 256 µg/mL (≈ 638 µM)
- MIC [40]: 1020 µg/mL (≈ 2550 µM)
- MIC [41]: 256 µg/mL (≈ 638 µM)
- MIC [42]: 512 µg/mL (≈ 1280 µM)
- MIC [43]: 512 µg/mL (≈ 1280 µM)
- MIC [44]: 64 µg/mL (≈ 159 µM)
- MIC [45]: 2 µg/mL (≈ 4.98 µM)
- MIC [46]: 4 µg/mL (≈ 9.96 µM)
- MIC [47]: 1 µg/mL (≈ 2.49 µM)
- MIC [48]: 1 µg/mL (≈ 2.49 µM)
- MIC [49]: 1 µg/mL (≈ 2.49 µM)

Compound: CN[C@H](CC(C)C)C(=O)N[C@H]1C(=O)N[C@@H](CC(N)=O)C(=O)N[C@H]2C(=O)N[C@H]3C(=O)N[C@H](C(=O)N[C@H](C(=O)O)c4cc(O)cc(O)c4-c4cc3ccc4O)[C@H](O)c3ccc(c(Cl)c3)Oc3cc2cc(c3O[C@@H]2O[C@H](CO)[C@@H](O)[C@H](O)[C@H]2O[C@H]2C[C@](C)(N)[C@H](O)[C@H](C)O2)Oc2ccc(cc2Cl)[C@H]1O [VCM, vancomycin]
- MIC [1]: 2 µg/mL (≈ 1.38 µM)
- MIC [2]: 2 µg/mL (≈ 1.38 µM)
- MIC [3]: 4 µg/mL (≈ 2.76 µM)
- MIC [4]: 2 µg/mL (≈ 1.38 µM)
- MIC [5]: 3 µg/mL (≈ 2.07 µM)
- MIC [6]: 4 µg/mL (≈ 2.76 µM)
- MIC [7]: 4 µg/mL (≈ 2.76 µM)
- MIC [8]: 2 µg/mL (≈ 1.38 µM)
- MIC [9]: 4 µg/mL (≈ 2.76 µM)
- MIC [10]: 8 µg/mL (≈ 5.52 µM)
- MIC [11]: 8 µg/mL (≈ 5.52 µM)
- MIC [12]: 8 µg/mL (≈ 5.52 µM)
- MIC [13]: 4 µg/mL (≈ 2.76 µM)
- MIC [14]: 4 µg/mL (≈ 2.76 µM)
- MIC [15]: 2 µg/mL (≈ 1.38 µM)
- MIC [16]: 4 µg/mL (≈ 2.76 µM)
- MIC [17]: 4 µg/mL (≈ 2.76 µM)
- MIC [18]: 4 µg/mL (≈ 2.76 µM)
- MIC [19]: 4 µg/mL (≈ 2.76 µM)
- MIC [20]: 2 µg/mL (≈ 1.38 µM)
- MIC [21]: 4 µg/mL (≈ 2.76 µM)
- MIC [22]: 4 µg/mL (≈ 2.76 µM)
- MIC [23]: 4 µg/mL (≈ 2.76 µM)
- MIC [24]: 1 µg/mL (≈ 0.69 µM)
- MIC [25]: 4 µg/mL (≈ 2.76 µM)
- MIC [26]: 4 µg/mL (≈ 2.76 µM)
- MIC [27]: 4 µg/mL (≈ 2.76 µM)
- MIC [28]: 8 µg/mL (≈ 5.52 µM)
- MIC [29]: 4 µg/mL (≈ 2.76 µM)
- MIC [30]: 4 µg/mL (≈ 2.76 µM)
- MIC [31]: 4 µg/mL (≈ 2.76 µM)
- MIC [32]: 1 µg/mL (≈ 0.69 µM)
- MIC [33]: 2 µg/mL (≈ 1.38 µM)
- MIC [34]: 2 µg/mL (≈ 1.38 µM)
- MIC [35]: 4 µg/mL (≈ 2.76 µM)
- MIC [36]: 4 µg/mL (≈ 2.76 µM)
- MIC [37]: 8 µg/mL (≈ 5.52 µM)
- MIC [38]: 2 µg/mL (≈ 1.38 µM)
- MIC [39]: 2 µg/mL (≈ 1.38 µM)
- MIC [40]: 8 µg/mL (≈ 5.52 µM)
- MIC [41]: 4 µg/mL (≈ 2.76 µM)
- MIC [42]: 0.5 µg/mL (≈ 0.345 µM)
- MIC [43]: 8 µg/mL (≈ 5.52 µM)
- MIC [44]: 8 µg/mL (≈ 5.52 µM)
- MIC [45]: 2 µg/mL (≈ 1.38 µM)
- MIC [46]: 8 µg/mL (≈ 5.52 µM)
- MIC [47]: 4 µg/mL (≈ 2.76 µM)
- MIC [48]: 4 µg/mL (≈ 2.76 µM)
- MIC [49]: 4 µg/mL (≈ 2.76 µM)
